{
  "source": "patent US4101669A",
  "about": "(priority 1977, dated 1978)",
  "key": {"[1]": {"assay": "Example 1: stability of active ingredient at 300 ppm in severe test waters, assay after 4 hours at room temperature", "assay_type": "physicochemical", "conditions": "for pH: after 4 hours at room temperature; for assay (as percent of original): 4 hours, room temperature", "method": "The stability of the active ingredient formulated as above is compared with that of the pure technical material at 300 ppm in:\n(a) a basic, soda-ash softened water of initial pH 10.2 with 0.66 × 10^-3 N basicity, primarily as carbonate, and\n(b) a strong \"sodium bicarbonate\" water (prepared to match a Montana well water) with pH 8.8 and 13 × 10^-3 N basicity.\nAfter 4 hours at room temperature in these severe test waters, the following pH readings and assays (as percent of original) were obtained."}, "[2]": {"assay": "Example 2: stability of substituted acetamide in mixtures with commercial fungicides, 4 hour assay and 1-4 hour pH range", "assay_type": "physicochemical", "conditions": "particularly in basic water", "method": "is prepared by blending and hammer milling.\n(b) 2-cyano-N-ethylcarbamoyl-2-methoxyiminoacetamide is finely ground.\nThe materials above are mixed with the following commercial fungicides in a ratio to provide 1 part of active compound of (a) or (b) with the indicated parts of commodity listed:\nThe mixtures are then added to distilled water in one case and 4.7 × 10^-3 N sodium bicarbonate (chosen to represent rather alkaline water) in the other case, at a rate to provide about 150 ppm of substituted acetamide. After 4 hours, the suspensions are assayed to determine the present substituted acetamide remaining. The pH during the 1-4 hour period is also recorded."}},
  "data": [
    {"molecule": "CCNC(=O)NC(=O)C(C#N)=NOC", "note": "[pure compound, 2-cyano-N-ethylcarbamoyl-2-methoxyiminoacetamide]", "values": [
      {"measurement": "pH", "setting": "[1]; water a)", "result": 7.7},
      {"measurement": "assay (as percent of original)", "setting": "[1]; water a): soda-ash softened, initial pH 10.2, 0.66 × 10^-3 N basicity", "result": "43% of original"},
      {"measurement": "pH", "setting": "[1]; water b)", "result": 8.2},
      {"measurement": "assay (as percent of original)", "setting": "[1]; water b): strong sodium bicarbonate water, pH 8.8, 13 × 10^-3 N basicity", "result": "16% of original"},
      {"measurement": "effect of acidulant on stability in mixtures with commercial fungicides", "setting": "[2]", "result": "the acidulant improves stability"}
    ]}
  ]
}
